Experimental data as given in patent publication US8158621B2, “Methods of treating or preventing autoimmune diseases with 2,4-pyrimidinediamine compounds” (Rigel Pharmaceuticals, Inc., priority 2002, dated 2012).

Tests used:
Jurkat cells = assay: Jurkat (T-cell) toxicity, light scatter; assay type: cell-based, human; details: read-out: Toxicity Jurkat Light Scat.
Protocol: Dilute Jurkat cells to 2×10^5 cells/ml in complete RPMI (10% heat-inactivated fetal bovine serum) media and incubate at 37° C., 5% CO2 for 18 hours. Add 65 ul cells at 7.7×10^5 cells/ml to a 96-well V-bottom plate (TC-treated, Costar) containing 65 ul 2× compound (final vehicle concentration is 0.5% DMSO, 1.5% MeOH). Mix, incubate plates for 18-24 hr at 37° C., 5% CO2. Toxicity was assessed by flow cytometric analysis of cellular light scatter

B-cell line BJAB = assay: BJAB (B-cell) toxicity, light scatter; assay type: cell-based; details: read-out: Toxicity BJAB Light Scat.
Protocol: The B-cell line BJAB was cultured in log phase in RPMI1640+10% heat-inactivated fetal bovine serum, 1× L-glutamine, 1× penicillin, 1× […] and 1× beta-mercaptoethanol at 37° C., 5% CO2. First, BJABs were harvested, spun and resuspended in culture medium to a concentration of 7.7×10^5 cells/mL. 65 uL cells were mixed with 65 uL compound, in duplicate and in the presence of 0.1% DMSO in a V-bottomed 96-well tissue culture plate. Cells were incubated with compound at various dilutions at 37° C., 5% CO2. Toxicity was assessed by flow cytometric analysis of cellular light scatter.

[1] = test system: cultured human mast cells (CHMC); assay: CHMC low cell density IgE activation: tryptase assay; assay type: cell-based
Summary of the method: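 Read-out: tryptase released into supernatant, measured by substrate turnover over 30 min at RT. Low-density CHMC (1000-1500 cells/well, per donor degranulation activity) in MT buffer, 1 hr at 37° C, then anti-IgE challenge 30 min at 37° C.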

[2] = test system: cultured human mast cells (CHMC); assay: CHMC low cell density IgE activation: LTC4 assay; assay type: cell-based; details: anti-IgE activation, LTC4 release
Protocol: Pellet CHMC cells (980 rpm, 10 min) and resuspend in pre-warmed MT. Add 65 ul of cells to each 96-well plate. Depending on the degranulation activity for each particular CHMC donor, load 1000-1500 cells/well. Mix four times followed by a 1 hr incubation at 37° C. […] Stimulate cells by adding 25 ul of 6× anti-IgE solution to the appropriate plates. Add 25 ul MT to un-stimulated control wells. Mix twice following addition of the anti-IgE. Incubate at 37° C. for 30 minutes. […] Spin plates at 1000 rpm for 10 min to pellet cells. Transfer 25 ul of supernatant to a 96-well black bottom plate and add 100 ul of freshly diluted tryptase substrate solution to each well. Incubate plates at room temperature for 30 min.
Leukotriene C4 (LTC4) is also quantified using an ELISA kit on appropriately diluted supernatant samples (determined empirically for each donor cell population so that the sample measurement falls within the standard curve) following the supplier's instructions.

[3] = test system: cultured human mast cells (CHMC); assay: CHMC low cell density ionomycin activation: tryptase assay; assay type: cell-based
[4] = test system: Human Jurkat T-cells (clone N); assay: Jurkat T-cell activation (anti-TCR, CD69 upregulation); assay type: cell-based
Summary of the method: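 Readout is CD69 upregulation by flow cytometry (anti-CD69-APC, 20 min at 4 °C) after 20 h anti-TCR (C305, 500 ng/ml) stimulation at 37 °C.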

Primary human B-cells = assay: Primary B-cell activation (α-IgM, CD69 upregulation); assay type: cell-based; details: read-out: 1° B-Cell CD69 IC50
Protocol: Primary human B-cells were isolated from buffy coat, the white cell layer that forms between the red cells and the […] when anti-coagulated blood is centrifuged, or from fresh blood using CD19-Dynal® beads and a FACS. Buffy coat was obtained from the Stanford Medical School Blood Centre, prepared on the same day by the blood bank, stored and transported cold (with ice). The buffy coat (approx 35 mL) was placed in a 500 mL conical sterile centrifuge pot and cooled on ice, then diluted with cold PBS containing 0.2% BSA (Sigma: A7638) and sodium citrate (0.1%, Sigma: S-5570) (P—B—C) to a total volume of 200 mL and mixed gently. Fresh blood was collected from donors in 10 mL vacutainers containing heparin (1 vacutainer collects approximately 8.5 mL blood). The blood was cooled on ice, transferred into 50 mL falcon tubes (20 mL/tube) or a 500 mL conical sterile centrifuge pot, and diluted with an equal volume P—B—C.
25 mL diluted blood or buffy coat was layered onto 15 mL cold ficoll and placed back on ice. The ficoll layered blood was centrifuged (Beckman GS-6R) for 45 minutes at 2000 rpm, 4° C. to separate the Peripheral Blood Mononuclear Cells (PBMC) from the Red Blood Cells (RBC) and granulocytes. The top aqueous layer was then aspirated until 1 inch above the PBMC layer. The PBMCs were transferred from every 2 ficoll tubes into one clean 50 mL falcon tube (=approx 10 mL/tube). The transferred PBMCs were diluted 5× with icecold PBS with 0.2% BSA (P—B) and centrifuged for 20 min at 1400 rpm and 4° C. The supernatant (this may be cloudy) was then aspirated and the PBMCs resuspended into 25 mL P—B and the cells counted (using a 1:5 dilution) and kept on ice.
The cells were then positively selected using anti-CD 19 antibody coupled to magnetic beads (Dynal®) as per manufacturer's instructions. The approximate required amount of CD19-Dynal® beads (CD19-coated dyna beads M-450 (pabB), Dynal®) was calculated by estimating the number of B-cells as 5% of PBMCs counted and adding approximately10 beads per cell from the bead stock (4×10^8 beads/mL). The CD19-Dynal® beads were washed 2× in P—B in a 5 mL tube using the Dynal® magnet, then added into the suspended PBMCs. This mixture was then passed through the Dynal® magnet and washed several times to separate the bead-bound cells.
After separation, the beads and antibody were removed using Dynal® CD19-DETACHaBEAD® for 45 min at 30° C. Yield is typically 2×10^7 B-cells per buffy coat. B-cells were washed and resuspended as 1E6 cells/mL in RPMI1640+10% FBS+Penicillin/[…]+1 ng/mL IFNα8. Cells were rested overnight at 37° C. and 5% CO2.
The following day, cells were washed and resuspended in RPMI+2.5% FBS to 1×10^6 cells/mL. Cells were then aliquoted into a V-bottom 96-well plate (Corning) at 65 uL cells per well. By robot, 65 uL of a 2× compound was added to the cells with final concentration of DMSO at 0.2%, and incubated for 1 hr at 37° C. Cells were then stimulated with 20 uL 7.5× α-IgM from Jackson laboratories (final 5 ug/mL) for 24 hrs. At day 3, the cells were spun down and stained for CD69 and analyzed by FACS gated on the live cells (by light scatter).
Varied concentrations of compound were compared to solvent only to determine the inhibition of B-cell activation IC50 of each compound.

Syk kinase = target: T1, Syk kinase (Homo sapiens, UniProt P43405); assay: Syk kinase biochemical fluorescence polarization assay; details: isolated Syk kinase, fluorescence polarization, 4 uM ATP
T1 construct: purchased Upstate, Lake Placid NY

[5] = test system: FcγRI-mediated degranulation; assay: FcγRI-mediated degranulation (anti-human IgG Fab activation); assay type: cell-based; details: cells not primed with IgE, activated with rabbit anti-human IgG Fab fragment
[6] = Mouse Reverse Passive Arthus reaction (RPA reaction); assay type: in vivo, C57BL/6 mice; details: oral, 100 mg/kg
Protocol: In this model system, test compounds are administered at several timepoints prior to administration of Abs and Ags. A solution of rabbit anti-OVA IgG (50 μg in 25 μl/mouse) is injected intradermally, and immediately following is an intravenous injection of chicken egg albumin (20 mg/kg of body weight) in a solution containing 1% Evans blue dye. The degree of edema and hemorrhage is measured in the dorsal skin of C57BL/6 mice using the Evan's Blue dye as an indicator of local tissue damage. Purified polyclonal rabbit IgG is used as a control.
Pretreatment time, in which the test compounds are administered prior to Ab/Ag challenge, depends on the pharmacokinetic (PK) properties of each individual compound. Four hours after induction of Arthus reaction, mice are euthanized, and tissues are harvested for assessment of edema.

[7] = test system: basophil cells (human peripheral blood); assay: Basophil ionomycin activation: histamine release assay; assay type: cell-based; details: basophils, ionomycin activation, histamine release; read-out: Basophils Ionomycin Histamine IC50
Protocol: (§1) The basophil activation assay was carried out using whole human peripheral blood from donors allergic to dust mites with the majority of the red blood cells removed by dextran sedimentation. Human peripheral blood was mixed 1:1 with 3% dextran T500 and RBCs were allowed to settle for 20-25min. The upper fraction was diluted with 3 volumes of D-PBS and cells were spun down for 10 min at 1500 rpm, RT. Supernatant was aspirated and cells were washed in an equal volume MT-buffer. Finally, cells were resuspended in MT-buffer containing 0.5% DMSO in the original blood volume. 80 uL cells were mixed with 20 uL compound in the presence of 0.5% DMSO, in triplicate, in a V-bottom 96-well tissue culture plate. A dose range of 8 compound concentrations was tested resulting in a 10-point dose response curve including maximum (stimulated) and minimum (unstimulated) response. […] The cells were stimulated for 30 minutes at 37° C., 5% CO2. The plate was spun for 10 min at 1500 rpm at room temperature and 80 uL the supernatant was harvested for histamine content analysis using the histamine ELISA kit supplied by Immunotech. The ELISA was performed according to supplier's instructions.
Assays for ionomycin-induced basophil cell degranulation were carried out as described for the Basophil IgE or Dustmite Activation Assay (Section 7.5.5, supra), with the exception that following incubation with compound, cells were stimulated with 20 μl of 2 μM ionomycin.

[8] = test system: basophil cells (human peripheral blood); assay: Basophil anti-IgE activation: histamine release assay; assay type: cell-based; details: basophils, anti-IgE activation, histamine release; read-out: Basophils anti-IgE Histamine IC50
Protocol: as §1

[9] = Low Density CHMC, anti-IgE activation, tryptase release, read-out: CHMC anti-IgE Tryptase IC50
[10] = Low Density CHMC, ionomycin activation, tryptase release, read-out: CHMC Ionomycin Tryptase IC50

Row | SMILES | IC50 [1, 9] [nM] | IC50 [2] [nM] | IC50 [3, 10] [nM] | IC50 [4] [nM] | IC50 (Syk kinase) [nM] | IC50 (Jurkat cells) [nM] | IC50 (B-cell line BJAB) [nM] | inhibition of FcγRI-mediated degranulation [5] | also measured
1 | O=C1Nc2cc(Nc3ncc(F)c(Nc4ccc5c(c4)NC(=O)C(F)(F)O5)n3)ccc2OC1(F)F [Compound R940352] | – | – | – | 3530 | 130 | – | – | inhibit FcγRI-mediated degranulation | IC50 (Primary human B-cells): 876 nM
2 | CC(=O)Oc1cccc(Nc2ncc(F)c(Nc3cccc(OC(C)=O)c3)n2)c1 [Compound R926387] | 650 | 700 | > 10000 | 3850 | – | > 10000 | > 10000 | – | –
3 | Cc1cnc(Nc2cccc(O)c2)nc1Nc1cccc(O)c1 [Compound R926248] | 900 | 760 | > 10000 | 1540 | – | > 10000 | > 10000 | – | –
4 | Fc1cnc(Nc2ccc3c(c2)OC(F)(F)C(F)(F)O3)nc1Nc1ccc2c(c1)OC(F)(F)C(F)(F)O2 [Compound R926037] | – | – | – | > 10000 | – | – | – | – | IC50 [7]: > 10000 nM; IC50 [8]: > 10000 nM
5 | Cc1cc(Nc2ncc(F)c(Nc3ccc4c(c3)NC(=O)C(F)(F)O4)n2)cc(Cl)c1O [Compound R926971] | – | – | – | – | 8 | – | – | inhibit FcγRI-mediated degranulation | IC50 ([1]; low cell density, read-out: CHMC anti-IgE Tryptase): 34 nM; IC50 ([3]; low cell density, read-out: CHMC Ionomycin Tryptase): > 10000 nM

Continued by falling IC50 [4], values first:

Row | IC50 [1, 9] [nM] | IC50 [2] [nM] | IC50 [3, 10] [nM] | IC50 [4] [nM] | IC50 (Syk kinase) [nM] | SMILES | IC50 (Jurkat cells) [nM] | IC50 (B-cell line BJAB) [nM] | inhibition of FcγRI-mediated degranulation [5] | also measured
6 | – | – | – | 30700 | 205 | Fc1cnc(Nc2ccc3cn[nH]c3c2)nc1Nc1ccc(Cl)c(Cl)c1 [Compound R935372] | – | – | inhibit FcγRI-mediated degranulation | % inhibition to vehicle control Edema Size ± SEM ([6]; pretreatment time 0.5 hrs): −0.6 ± 6.2%; Plasma Concentration ± SEM (ng/ml) Exposure = Pretreatment Time + 4 hours ([6]; pretreatment time 0.5 hrs + 4 hours): 0.6 ± 1 ng/mL; % inhibition to vehicle control Edema Size ± SEM ([6]; pretreatment time 1 hrs): 23.5 ± 7.4%; Plasma Concentration ± SEM (ng/ml) Exposure = Pretreatment Time + 4 hours ([6]; pretreatment time 1 hrs + 4 hours): 4.2 ± 4 ng/mL; % inhibition to vehicle control Edema Size ± SEM ([6]; pretreatment time 2 hrs): −4.4 ± 17.7%; Plasma Concentration ± SEM (ng/ml) Exposure = Pretreatment Time + 4 hours ([6]; pretreatment time 2 hrs + 4 hours): 52.65 ± 39 ng/mL
7 | 225 | 180 | > 10000 | 3400 | – | Oc1cccc(Nc2ncc(Br)c(Nc3cccc(O)c3)n2)c1 [Compound R925778] | > 10000 | > 10000 | – | –
8 | 850 | 280 | > 10000 | 1510 | – | Oc1cccc(Nc2nc(Nc3ccc4c(c3)OCCO4)ncc2Br)c1 [Compound R925797] | > 10000 | > 10000 | – | –
9 | 500 | 250 | > 10000 | 954 | – | Oc1cccc(Nc2ccnc(Nc3cccc(O)c3)n2)c1 [Compound R926249] | > 10000 | > 10000 | – | –
